The source of these data is ChEMBL document CHEMBL1133483, “Enhanced pneumocystis carinii activity of new primaquine analogues” (2000).

Holding throughout (assay type): functional
Experiment [1] concerns Pneumocystis carinii. In words: Efficacy of compound was evaluated in rat infected with Pneumocystis carinii at a dose of 2 mg/Kg administered intraperitoneally.
Experiment [2] relates to Pneumocystis carinii. Kind of experiment: Efficacy of compound was evaluated in rat infected with Pneumocystis carinii at a dose of 2 mg/Kg administered orally.
Experiment [3] deals with Pneumocystis carinii. In words: Efficacy of compound was evaluated in rat infected with Pneumocystis carinii at a dose of 2 mg/Kg administered subcutaneously.

`CCOc1ccc(Oc2c(OC)cc(NC(C)CCCN)c3nccc(C)c23)cc1` (stereo unspecified): the Infection score in the experiment with Pneumocystis carinii [1] came out at 0.
Take `CCCCCCCOc1ccc(Oc2c(OC)cc(NC(C)CCCN)c3nccc(C)c23)cc1` (stereo unspecified): the Infection score turned out to be 1.25 in the experiment on Pneumocystis carinii [2] and 0.71 with Pneumocystis carinii [1].
In turn, `CCCCCCCCCCCCCCCCOc1ccc(Oc2c(OC)cc(NC(C)CCCN)c3nccc(C)c23)cc1` (stereo unspecified) had an Infection score in the experiment with Pneumocystis carinii [1] of 4.5.
Same read-out and setting: in the case of `COc1cc(Cc2cnc(N)nc2N)cc(OC)c1OC.Cc1cc(NS(=O)(=O)c2ccc(N)cc2)no1` [CO-TRIMOXAZOLE] it was 1.31.
In the experiment with Pneumocystis carinii [3], `COc1cc(NC(C)CCCN)c2ncccc2c1` (stereo unspecified) [PRIMAQUINE] registered an Infection score of 4.3.
